Measurements reported in patent publication US4871748A, “Phenylpropargylamine derivatives” (May & Baker Limited, priority 1984, dated 1989).

Assay: Acute Oral Toxicity in Mice (Laboratory Strain)
Details: mouse, in vivo, aqueous suspension, mg/kg animal body weight, observed until no deaths for at least three days
Protocol: Acute Oral Toxicity in Mice (Laboratory Strain)
Groups of mice were dosed orally with graded doses of the test compound in aqueous suspension and observed until there had been no deaths for at least three days. The acute oral LD50, that is to say the dose in mg/kg animal body weight necessary to kill 50% of the mice, was determined from the numbers of animals for each dose which died during the observation period by reference to published tables.

| SMILES | LD50 |
| --- | --- |
| CC(C)(CO)C1CCN(CC#Cc2cc(C(F)(F)F)cc(C(F)(F)F)c2)CC1 [1 (as free base), 1-(3,5-bistrifluoromethylphenyl)-3-[4-(1,1-dimethyl-2-hydroxyethyl)piperidino]prop-1-yne] | 78 mg/kg |
| COCC(C)(C)C1CCN(CC#Cc2cc(C(F)(F)F)cc(C(F)(F)F)c2)CC1.Cl [2 (as hydrochloride), 1-(3,5-bistrifluoromethylphenyl)-3-[4-(1,1-dimethyl-2-methoxyethyl)piperidino]prop-1-yne hydrochloride] | 68 mg/kg |
| CC(=O)OCC(C)(C)C1CCN(CC#Cc2cc(C(F)(F)F)cc(C(F)(F)F)c2)CC1.Cl [3 (as hydrochloride), 1-(3,5-bistrifluoromethylphenyl)-3-[4-(1,1-dimethyl-2-acetyloxyethyl)piperidino]prop-1-yne hydrochloride] | 68 mg/kg |
| CC(C)(CO)C1CCN(CC#Cc2cc(C(F)(F)F)cc(C(F)(F)F)c2)CC1.NS(=O)(=O)O [1 (as sulphamate), 1-(3,5-bistrifluoromethylphenyl)-3-[4-(1,1-dimethyl-2-hydroxyethyl)piperidino]prop-1-yne sulphamate] | 72 mg/kg |
| CC(C)(C=O)C1CCN(CC#Cc2cc(C(F)(F)F)cc(C(F)(F)F)c2)CC1.Cl [4 (as hydrochloride), 1-(3,5-bistrifluoromethylphenyl)-3-[4-(1,1-dimethyl-2-oxoethyl)piperidino]prop-1-yne hydrochloride] | 68 mg/kg |
| CC(=O)O.CC(C)(CO)C1CCN(CC#Cc2cc(C(F)(F)F)cc(C(F)(F)F)c2)CC1 [1 (as acetate), 1-(3,5-bistrifluoromethylphenyl)-3-[4-(1,1-dimethyl-2-hydroxyethyl)piperidino]prop-1-yne acetate] | 95 mg/kg |
| CC(C)(CO)C1CCN(CC#Cc2cc(C(F)(F)F)cc(C(F)(F)F)c2)CC1.O=[N+]([O-])O [1 (as nitrate), 1-(3,5-bistrifluoromethylphenyl)-3-[4-(1,1-dimethyl-2-hydroxyethyl)piperidino]prop-1-yne nitrate] | 72 mg/kg |
| CC(C)(CO)C1CCN(CC#Cc2cc(C(F)(F)F)cc(C(F)(F)F)c2)CC1.Cl [1 (as hydrochloride), 1-(3,5-bistrifluoromethylphenyl)-3-[4-(1,1-dimethyl-2-hydroxyethyl)piperidino]-prop-1yne hydrochloride] | 62 mg/kg |
